Source: patent US7150974B1, “Parathyroid hormone receptor binding method” (The General Hospital Corporation, priority 1991, dated 2006)
Entries after “also recorded” stand apart in the source; their conditions may differ.

Legend:
Format in all cases: cell-based
[1] = target: T1, opossum kidney PTH/PTHrP receptor clone, OK-H (Didelphis virginiana, UniProt P25107, I132F/S86P); assay: Intracellular free calcium, COS cells expressing OK-H; conditions: FIG. 10, smaller extent, or not at all, compared with OK-O or R15B
T1 construct: expressed in transfected cells; host or cells: COS cells, transient, plasmid OK-H (pcDNA I)
T1 sequence (P25107 other isoform, or with tags, fused parts or gaps S86P/I132F): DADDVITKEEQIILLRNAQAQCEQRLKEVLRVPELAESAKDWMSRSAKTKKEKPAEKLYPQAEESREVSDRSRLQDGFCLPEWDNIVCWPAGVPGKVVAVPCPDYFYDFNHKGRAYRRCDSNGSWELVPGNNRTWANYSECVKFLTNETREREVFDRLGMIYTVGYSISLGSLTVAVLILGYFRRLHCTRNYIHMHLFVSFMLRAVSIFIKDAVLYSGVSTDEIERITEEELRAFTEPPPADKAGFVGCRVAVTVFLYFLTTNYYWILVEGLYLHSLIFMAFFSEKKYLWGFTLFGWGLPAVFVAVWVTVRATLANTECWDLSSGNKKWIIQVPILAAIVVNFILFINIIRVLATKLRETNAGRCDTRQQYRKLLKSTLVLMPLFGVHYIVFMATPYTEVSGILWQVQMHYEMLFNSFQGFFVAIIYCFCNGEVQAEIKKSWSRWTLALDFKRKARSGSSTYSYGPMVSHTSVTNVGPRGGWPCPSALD
Method: Measurements of intracellular calcium levels in cells transfected with PTH/PTHrP receptor cDNAs were performed using Fura-2 AM (acetomethoxy ester of Fura-2, Molecular Probes Inc., Eugene, Oreg.) loaded cells. Details of the methodology are:
Coverslips plated with COS cells were incubated in Fura-2 AM loading buffer containing, in mM: HEPES (N-[2-Hydroxyethyl]piperazine-N′-[2-ethanesulfonic acid]), 20; CaCl2, 1; KCl 5; NaCl, 145; MgSO4, 0.5; NaHCO3, 25; K2HPO4, 1.4; glucose, 10; and Fura-2 AM 91-(2-5′-carboxyoxazol-2′-yl)-6-aminobenzofuran-5oxy-(2′-amino-5′-methylphenoxy)ethane-N,N,N′,N′-tetraaecetic acid acetomethoxy ester), 0.5; at 37° C. at pH7.4, aerated with 95% air and 5% CO2 for 45 minutes. Cells loaded with Fura-2 AM were then washed with a modified Krebs-Heinseleit (KH) buffer containing, in mM: HEPES, 20; CaCl2, 1; KCl, 5; NaCl, 145; MgSO4, 0.5; Na2HPO4, 1; glucose, 5; pH7.4. To check that cleavage of the ester occurred, the excitation spectra after different times of Fura-2 AM incubation were measured. […]
To measure fluorescence of individual cells, the cover slips were placed in a microscope tissue chamber (Biophysica Technologies, Inc., MD). […] Fura-2 fluorescence was excited with a 75 watt Xenon arc lamp placed at the focal point of a condenser (Photon Technologies International (PTI) Inc., NJ). […]

[2] = target: T1, opossum kidney PTH/PTHrP receptor clone, OK-H; assay: Inositol phosphate metabolism, COS cells expressing OK-H; conditions: FIG. 15, listed as NlePTH
[3] = target: T2, opossum kidney PTH/PTHrp receptor clone, OK-O (Didelphis virginiana, UniProt P25107, I132F/S86P); assay: Inositol phosphate metabolism, COS cells expressing OK-O; conditions: FIG. 15, listed as NlePTH
T2 construct: expressed in transfected cells; host or cells: COS cells, transient, plasmid OK-O (pcDNA I)
T2 sequence (P25107 27-585 S86P/I132F): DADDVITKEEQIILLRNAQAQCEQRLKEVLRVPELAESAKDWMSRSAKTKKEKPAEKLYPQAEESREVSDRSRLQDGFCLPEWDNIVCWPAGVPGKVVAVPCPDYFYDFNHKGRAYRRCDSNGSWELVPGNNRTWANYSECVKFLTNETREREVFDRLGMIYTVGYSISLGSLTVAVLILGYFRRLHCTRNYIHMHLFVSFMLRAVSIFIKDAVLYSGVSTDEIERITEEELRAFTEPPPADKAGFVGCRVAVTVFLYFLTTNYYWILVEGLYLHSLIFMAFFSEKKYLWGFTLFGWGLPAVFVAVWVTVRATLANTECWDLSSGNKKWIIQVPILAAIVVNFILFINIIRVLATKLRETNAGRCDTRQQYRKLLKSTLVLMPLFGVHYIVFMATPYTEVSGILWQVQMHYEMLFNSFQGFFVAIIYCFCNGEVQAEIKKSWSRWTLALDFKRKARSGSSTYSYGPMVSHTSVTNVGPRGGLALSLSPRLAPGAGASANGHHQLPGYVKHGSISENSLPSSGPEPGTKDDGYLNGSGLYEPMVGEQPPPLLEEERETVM

[Nle^8,18, Tyr^34]bPTH(1-34)amide
increase in concentration of intracellular free calcium (mean) [1]: 39 nM
inositol phosphate metabolism (IP3 and IP2 accumulation) [2]: do not show a detectable increase; also recorded: did not show any detectable increase
inositol phosphate metabolism (IP3 and IP2 accumulation) [3]: rapid increase
